Data on 16 compounds can be found in PubChem BioAssay (NCI).

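Five compound concentrations were applied to cells in 96-well plates for 48 hours; endpoints were derived by simple linear interpolation of the resulting dose-response curve. Here, GI50 denotes the concentration required for 50% inhibition of growth. The concentration for full growth arrest is given as TGI.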

Test systems include 786-0 renal; DU-145 prostate; HS 578T breast; MCF7 breast; MDA-MB-435; MDA-N; NCI-H522 lung; NCI/ADR-RES ovarian; DLD-1 colon; DMS 114 small cell lung; DMS 273 small cell lung; LXFL 529 NSCLC; M19-MEL melanoma; SNB-78 CNS.
Common to all, as to test: NCI-60 cell line screen, 48 h

On to `CC(C)c1cc(CN(C)C)c(O)c(C(C)(C)C)c1`, for which the TGI was 32.5 µM in the assay with 786-0 renal; greater than 100 µM with DU-145 prostate; greater than 100 µM in the assay on HS 578T breast; 30.1 µM in the assay on MCF7 breast; greater than 100 µM in the assay with MDA-MB-435; 73.3 µM in the assay with MDA-N. In addition, the TGI is 38.1 µM in the assay with NCI-H522 lung and greater than 100 µM with NCI/ADR-RES ovarian.
Turning to `CCOC(=O)C12CCC(=O)C=C1[C@@H](C)C(=O)CC2` (some centres undefined), the TGI in the assay on DLD-1 colon, in the assay with DMS 114 small cell lung, with DMS 273 small cell lung, in the assay on LXFL 529 NSCLC and in the assay on M19-MEL melanoma was greater than 100 µM each time.
`Nc1nc(N)c2c(n1)NC(=O)c1c(c3ccccc3n1Cc1ccc(Cl)cc1)C2`: the TGI in the assay with DU-145 prostate was 29.3 µM; in the assay with HS 578T breast, greater than 100 µM; in the assay with MCF7 breast, 88.5 µM; with MDA-MB-435, 91.1 µM; in the assay on MDA-N, 34.5 µM; in the assay on NCI/ADR-RES ovarian, 85.6 µM.
Consider `CC(C)(C)N1C(C(=O)c2ccccc2)C1c1ccccc1` (centres undefined), for which the TGI in the assay on DLD-1 colon, in the assay with DMS 273 small cell lung, in the assay with LXFL 529 NSCLC, in the assay on M19-MEL melanoma, in the assay with NCI-H522 lung and with SNB-78 CNS was greater than 100 µM throughout.
For the compound `C#CCOc1c(C(=O)OCC)c(=O)n(C)c2ccccc12`, the TGI in the assay with DLD-1 colon, in the assay with DMS 114 small cell lung, with LXFL 529 NSCLC, with M19-MEL melanoma, in the assay with NCI-H522 lung and with SNB-78 CNS was greater than 100 µM in each case.
`CC(=O)OC(C)C1C2=C(C(=O)CC1(C)O)C(=O)c1c(ccc(-c3ccc4c(c3O)C(=O)C3=C(C4=O)C(C(C)OC(C)=O)C(C)(O)CC3=O)c1O)C2=O` (centres undefined): the TGI with 786-0 renal is 3.44 µM; in the assay on DLD-1 colon it was 2.43 µM; with DMS 114 small cell lung, 1.24 µM; in the assay on DMS 273 small cell lung it was 3.05 µM; in the assay with DU-145 prostate, 18.3 µM; in the assay on HS 578T breast, 5 µM. Also, the TGI amounted to 1.51 µM in the assay on LXFL 529 NSCLC; 2.7 µM in the assay on M19-MEL melanoma; 4.06 µM with MCF7 breast; 4.19 µM in the assay with MDA-MB-435; 7.34 µM with MDA-N; 4.25 µM in the assay on NCI-H522 lung. Moreover, the TGI in the assay with NCI/ADR-RES ovarian is 45.1 µM; in the assay with SNB-78 CNS, 9.63 µM.
On to `NC(=O)C(N)=O`, for which the TGI in the assay with 786-0 renal, with DLD-1 colon, with DMS 114 small cell lung, in the assay on DMS 273 small cell lung, in the assay on LXFL 529 NSCLC and in the assay on M19-MEL melanoma was greater than 100 µM in each case. Also, the TGI with NCI-H522 lung and in the assay with SNB-78 CNS was greater than 100 µM throughout.
`CC(C)=CCNc1ncnc2nc[nH]c12`: the TGI in the assay on 786-0 renal, with DU-145 prostate, with HS 578T breast, with MCF7 breast, in the assay on MDA-MB-435 and with MDA-N was greater than 100 µM throughout. Moreover, the TGI in the assay with NCI-H522 lung and in the assay on NCI/ADR-RES ovarian was greater than 100 µM throughout.
Turning to `COC(=O)Nc1nc2cc(OC)c(OC)cc2c(=O)[nH]1`, the TGI is greater than 100 µM with 786-0 renal; greater than 100 µM in the assay on DU-145 prostate; greater than 100 µM in the assay with HS 578T breast; greater than 100 µM with MCF7 breast; 7.99 µM in the assay with MDA-N; 6.51 µM with NCI-H522 lung. Moreover, the TGI with NCI/ADR-RES ovarian was greater than 100 µM.
Consider `O=C(CSc1nc2ccccc2s1)c1sc2sc3ccccc3[n+]2c1[O-]`, for which the TGI in the assay on 786-0 renal, with DU-145 prostate, in the assay on HS 578T breast, with MCF7 breast, in the assay on MDA-MB-435 and with MDA-N was greater than 100 µM each time. Further, the TGI in the assay on NCI-H522 lung and with NCI/ADR-RES ovarian was greater than 100 µM throughout.
For `COc1ccc(C[C@H](N)C(=O)NC2C(CO)OC(n3cnc4c(N(C)C)ncnc43)C2O)cc1` (some centres undefined), the TGI amounted to 0.604 µM in the assay with DMS 114 small cell lung; 1.51 µM in the assay on DMS 273 small cell lung; 0.305 µM in the assay with LXFL 529 NSCLC; 1.54 µM in the assay with M19-MEL melanoma; 0.758 µM with SNB-78 CNS.
`O=C(CNc1cccc([N+](=O)[O-])c1)Nn1c(-c2ccccc2)nc2ccccc2c1=O`: the TGI with DU-145 prostate is 5.47 µM; in the assay on HS 578T breast, 3.6 µM; in the assay on MCF7 breast, 1.71 µM; in the assay on NCI/ADR-RES ovarian, 1.89 µM.
In the case of `N#CCCCC[N+]12CN3CN(CN(C3)C1)C2`, the TGI in the assay on 786-0 renal, with DU-145 prostate, with HS 578T breast, with MCF7 breast, with MDA-MB-435 and in the assay with MDA-N was greater than 100 µM each time. For the same compound, the TGI in the assay with NCI-H522 lung and with NCI/ADR-RES ovarian was greater than 100 µM throughout.
Take `N#CN=C(N)NC(=O)/C=C/C=C/c1ccc(Cl)cc1`: the TGI in the assay on 786-0 renal, with DLD-1 colon, in the assay on DMS 114 small cell lung, in the assay on DMS 273 small cell lung, in the assay with LXFL 529 NSCLC and with M19-MEL melanoma was greater than 100 µM throughout. Also, the TGI in the assay with NCI-H522 lung and with SNB-78 CNS was greater than 100 µM each time.
`N=C(c1ccc2ccccc2c1)c1ccccc1Cc1ccccc1`: the TGI with 786-0 renal is greater than 100 µM; with DU-145 prostate, 96.6 µM; in the assay on MCF7 breast, greater than 100 µM; in the assay on MDA-MB-435 it was 80.7 µM; in the assay with MDA-N it was greater than 100 µM; in the assay on NCI/ADR-RES ovarian it was greater than 100 µM.
In the case of `O=c1ccc2nc(-c3ccccc3)nn(-c3ccccn3)c-2c1`, the GI50 in the assay on DU-145 prostate was 15.5 µM; with HS 578T breast, 23.4 µM; in the assay on MCF7 breast it was 2.13 µM; in the assay with MDA-MB-435 it was 15.4 µM; in the assay with NCI-H522 lung, 1.51 µM; in the assay on NCI/ADR-RES ovarian, 19.6 µM. For the same compound, the TGI was found to be 30.7 µM in the assay with DU-145 prostate; 98.8 µM with HS 578T breast; 5.88 µM with MCF7 breast; 33.9 µM in the assay with MDA-MB-435; 2.97 µM in the assay on NCI-H522 lung; 67.1 µM in the assay with NCI/ADR-RES ovarian.
